Test results as given in patent publication US6730503B1 (Roche Vitamins Inc., priority 1996, dated 2004).
Where two headings read alike, the source gives them in different places.

Tests used:
[1] = tested on: Enzyme A; assay: Effect of metals and inhibitors on enzyme activity, PMS-DCIP assay; assay type: biochemical, G. oxydans DSM No. 4025
[2] = tested on: Enzyme A′; assay: as above; assay type: biochemical, G. oxydans DSM No. 4025
[3] = tested on: Enzyme A″; assay: as above; assay type: biochemical, G. oxydans DSM No. 4025
[4] = tested on: Enzyme B; assay: as above; assay type: biochemical, G. oxydans DSM No. 4025
[5] = molecular target: T1, Gluconobacter oxydans DSM No. 4025 alcohol/aldehyde dehydrogenase Enzyme A′, SEQ ID NO: 6 (Ketogulonicigenium vulgare, UniProt F9Y5Q6); assay: Effect of inhibitors on activity of Enzyme A′ (PMS-DCIP assay, substrate n-propanol); assay type: biochemical; settings: 10 mM inhibitor, 30 minutes at 25° C., pH 7.5, relative to blank incubation
T1 construct: 579 aa precursor with 23 aa signal peptide; PMS-DCIP assay with n-propanol
T1 sequence (F9Y5Q6 with tags, fused parts or gaps): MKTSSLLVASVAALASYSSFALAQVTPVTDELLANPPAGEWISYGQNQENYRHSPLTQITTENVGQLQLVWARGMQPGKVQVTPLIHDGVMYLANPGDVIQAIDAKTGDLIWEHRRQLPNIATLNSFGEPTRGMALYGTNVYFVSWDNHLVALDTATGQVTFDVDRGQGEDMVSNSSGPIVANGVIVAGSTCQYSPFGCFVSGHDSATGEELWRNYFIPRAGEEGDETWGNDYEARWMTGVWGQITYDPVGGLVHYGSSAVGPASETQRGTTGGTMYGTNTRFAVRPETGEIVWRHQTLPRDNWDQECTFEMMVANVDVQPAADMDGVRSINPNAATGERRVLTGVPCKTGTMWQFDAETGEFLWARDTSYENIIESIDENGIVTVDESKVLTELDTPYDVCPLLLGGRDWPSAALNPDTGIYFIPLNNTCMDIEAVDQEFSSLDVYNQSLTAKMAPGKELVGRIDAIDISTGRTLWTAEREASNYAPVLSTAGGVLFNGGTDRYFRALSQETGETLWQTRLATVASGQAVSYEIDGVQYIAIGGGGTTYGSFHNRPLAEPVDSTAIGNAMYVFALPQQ
Description: (§1) The enzymatic activity of the AADHs herein can be determined by methods known in the art, such as by photometric analysis using a spectrophotometer. In accordance with the present invention, one unit of enzyme activity was defined as the amount of enzyme which catalyzed the reduction of 1 μmole of DCIP per minute. The extinction coefficient of DCIP at pH 8.0 was taken as 15 mM^−1. […] A second cuvette, i.e., a reference cuvette, contains all the above components except the substrate. The reference cuvette is used to standardize the background absorbance resulting from a substrate-independent (endogenous) reaction.
(§2) Enzyme activities of each clone (cell free extract, soluble fraction and membrane fraction) were measured by photometric analysis. The cells of each clone were inoculated in 5 ml of MB medium in a test tube and cultivated at 30° C. for 24 hours. The resulting broth was transferred into 200 ml of fresh MB medium in 500 ml flask and the flask was shaken on the rotary flask shaker at 30° C. for 24 hours. […] Substrate-dependent decreasing rate of absorbance of DCIP at 600 nm was measured at 25° C. by using a Kontron spectrophotometer UVIKON 810.
(§3) The enzyme (about 0.05 mg/ml) in 25 mM HEPES buffer, pH 7.5, containing 5% sucrose was incubated with metal or inhibitor for 30 minutes at 25° C. […] Remaining activity is expressed as relative activity against blank incubation.

[6] = molecular target: T2, Gluconobacter oxydans DSM No. 4025 alcohol/aldehyde dehydrogenase Enzyme B, SEQ ID NO: 8 (Ketogulonicigenium vulgare, UniProt F9Y8N6); assay: Effect of inhibitors on activity of Enzyme B (PMS-DCIP assay, substrate D-sorbitol); assay type: biochemical; settings: 10 mM inhibitor, 30 minutes at 25° C., pH 7.5, relative to blank incubation
T2 construct: 579 aa precursor with 23 aa signal peptide; PMS-DCIP assay with D-sorbitol
T2 sequence (F9Y8N6 24-579): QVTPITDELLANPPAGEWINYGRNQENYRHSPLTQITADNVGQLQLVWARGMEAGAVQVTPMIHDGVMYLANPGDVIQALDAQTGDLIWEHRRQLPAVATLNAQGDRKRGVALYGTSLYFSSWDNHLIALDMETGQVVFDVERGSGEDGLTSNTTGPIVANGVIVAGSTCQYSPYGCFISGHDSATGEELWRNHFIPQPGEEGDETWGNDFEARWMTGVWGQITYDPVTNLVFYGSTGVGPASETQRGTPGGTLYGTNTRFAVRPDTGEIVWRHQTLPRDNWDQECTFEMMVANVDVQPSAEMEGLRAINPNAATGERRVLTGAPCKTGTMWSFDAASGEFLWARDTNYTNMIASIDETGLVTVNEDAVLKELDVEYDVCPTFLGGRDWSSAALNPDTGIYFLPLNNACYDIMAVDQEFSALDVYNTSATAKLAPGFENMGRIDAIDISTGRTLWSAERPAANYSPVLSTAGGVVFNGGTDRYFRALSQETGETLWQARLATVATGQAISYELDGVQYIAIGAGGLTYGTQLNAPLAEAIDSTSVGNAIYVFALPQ
Description: as §1, §2, §3

[7] = molecular target: T3, Gluconobacter oxydans DSM No. 4025 alcohol/aldehyde dehydrogenase Enzyme B, wild type, SEQ ID NO: 8 (Ketogulonicigenium vulgare, UniProt F9Y8N6); assay: Kinetic properties of Enzyme B; assay type: biochemical
T3 construct: 579 aa precursor with 23 aa signal peptide
T3 sequence (F9Y8N6 24-579): T2 sequence (F9Y8N6 24-579)
Excerpt: Tables 11 and 12 summarizes the kinetic properties of chimera enzymes, Enzyme sA2 and Enzyme sB in comparison with Enzyme A and Enzyme B, respectively.

[8] = tested on: Gluconobacter oxydans DSM No. 4025 AADH chimera Enzyme sA2 (Enzyme A residues 1-135, Enzyme B residues 136-180, Enzyme A residues 180-556; parents SEQ ID NO: …); assay: Kinetic properties of chimera Enzyme sA2; assay type: biochemical; settings: read-out: Km (glucose)
Excerpt: (§4) To further improve the chimeras, Enzyme A/B21, Enzyme A/B22, Enzyme A/B25 and Enzyme A/B31 in the view point of the preferable codon usage, the C-terminal two thirds consisting of Enzyme B residues were replaced with the C-terminal two thirds consisting of Enzyme A residues. Enzyme A/B21, Enzyme A/B22, Enzyme A/B25 and Enzyme A/B31 genes were used for constructing new chimera genes of Enzyme sA21 (Enzyme A ammo acid residue Nos. 1-128, Enzyme B amino acid residue Nos. 129-180 and Enzyme A amino acid residue Nos. 180-556), Enzyme sA22 (Enzyme A amino acid residue Nos. 1-125, Enzyme B amino acid residue Nos. 126-180 and Enzyme A amino acid residue Nos. 180-556), Enzyme sA2 (Enzyme A amino acid residue Nos. 1-135, Enzyme B amino acid residue Nos. 136-180 and Enzyme A amino acid residue Nos. 180-556) and Enzyme sB (Enzyme A amino acid residue Nos. 1-95, Enzyme B amino acid residue Nos. 96-180 and Enzyme A amino acid residue Nos. 180-556) (FIG. 4). […]

[9] = tested on: Gluconobacter oxydans DSM No. 4025 AADH chimera Enzyme sB (Enzyme A residues 1-95, Enzyme B residues 96-180, Enzyme A residues 180-556; parents SEQ ID NO: …); assay: Kinetic properties of chimera Enzyme sB; assay type: biochemical; settings: read-out: Km (sorbitol)
Excerpt: as §4

[10] = substrate: OCC1(O)OC[C@H](O)[C@@H](O)[C@@H]1O; assay: purified protein, by the assay type; settings: other: Enzyme A
[11] = 5 mM compound, 30 minutes at 25° C., substrate L-Sorbose, relative to blank incubation
[12] = 5 mM compound, 30 minutes at 25° C., substrate n-Propanol, relative to blank incubation
[13] = 5 mM compound, 30 minutes at 25° C., substrate D-Sorbitol, relative to blank incubation
[14] = 1 mM compound, 30 minutes at 25° C., substrate L-Sorbose, relative to blank incubation
[15] = 1 mM compound, 30 minutes at 25° C., substrate n-Propanol, relative to blank incubation
[16] = 1 mM compound, 30 minutes at 25° C., substrate D-Sorbitol, relative to blank incubation
[17] = 0.5 mM compound, 30 minutes at 25° C., substrate L-Sorbose, relative to blank incubation

Molecule: O=S(=O)([O-])[O-].[Ni+2] [NiSO4]
- Relative remaining activity [1, 11]: 42.7
- Relative remaining activity [2, 12]: 59.7
- Relative remaining activity [3, 11]: 90.3
- Relative remaining activity [4, 13]: 79.4

Molecule: [Cl][Mn][Cl] [MmCl2]
- Relative remaining activity [1, 11]: 0.0
- Relative remaining activity [2, 12]: 45.7
- Relative remaining activity [3, 11]: 0.0
- Relative remaining activity [4, 13]: 0.0

Molecule: O=C(O)CI [ICH2COONa]
- Relative remaining activity [1, 14]: 97.2
- Relative remaining activity [2, 15]: 78.3
- Relative remaining activity [3, 14]: 95.3
- Relative remaining activity [4, 16]: 100.2

Molecule: [Cl][Cu][Cl] [CuCL2]
- Relative remaining activity [1, 11]: 0.0
- Relative remaining activity [2, 12]: 0.0
- Relative remaining activity [3, 11]: 0.0
- Relative remaining activity [4, 13]: 0.0

Molecule: Cl.NO [Hydroxylamine-HCl]
- Relative remaining activity [1, 17]: 104.6
- Relative remaining activity ([2]; 0.5 mM compound, 30 minutes at 25° C., substrate n-Propanol, relative to blank incubation): 98.8
- Relative remaining activity [3, 17]: 97.2
- Relative remaining activity ([4]; 0.5 mM compound, 30 minutes at 25° C., substrate D-Sorbitol, relative to blank incubation): 102.1

Molecule: [F-].[Na+] [NaF]
- Relative remaining activity [1, 14]: 98.2
- Relative remaining activity [2, 15]: 97.1
- Relative remaining activity [3, 14]: 94.9
- Relative remaining activity [4, 16]: 100.8

Molecule: O=C(O)CN(CCOCCOCCN(CC(=O)O)CC(=O)O)CC(=O)O [EGTA]
- remaining activity at 10000 µM [5]: 16.7%
- remaining activity at 10000 µM [6]: 74%

Molecule: [Cl-].[Cl-].[Mg+2] [MgCl2]
- Relative remaining activity [1, 11]: 96.3
- Relative remaining activity [2, 12]: 85.3
- Relative remaining activity [3, 11]: 78.8
- Relative remaining activity [4, 13]: 100.0

Molecule: [Cl][Fe]([Cl])[Cl] [FeCl3]
- Relative remaining activity [1, 11]: 7.8
- Relative remaining activity [2, 12]: 0.0
- Relative remaining activity [3, 11]: 44.7
- Relative remaining activity [4, 13]: 0.0

Molecule: OCC1(O)OC[C@H](O)[C@@H](O)[C@@H]1O (stereo partly drawn) [sorbose, L-sorbose]
- Ki [7]: 100 mM

Molecule: [Cl-].[Cl-].[Zn+2] [ZnCl2]
- Relative remaining activity [1, 11]: 1.5
- Relative remaining activity [2, 12]: 6.1
- Relative remaining activity [3, 11]: 19.2
- Relative remaining activity [4, 13]: 0.0

Molecule: [Cl][Fe][Cl] [FeCl2]
- Relative remaining activity [1, 11]: 16.6
- Relative remaining activity [2, 12]: 0.0
- Relative remaining activity [3, 11]: 0.0
- Relative remaining activity [4, 13]: 5.9

Molecule: OC[C@H]1OC(O)[C@H](O)[C@@H](O)[C@@H]1O (stereo partly drawn) [glucose]
- Km [8]: 20 mM

Molecule: [Ca+2].[Cl-].[Cl-] [CaCl2]
- Relative remaining activity [1, 11]: 98.8
- Relative remaining activity [2, 12]: 95.3
- Relative remaining activity [3, 11]: 123.0
- Relative remaining activity [4, 13]: 102.9

Molecule: OC[C@@H](O)[C@@H](O)[C@H](O)[C@@H](O)CO [sorbitol, D-sorbitol]
- Km [9]: 61 mM

Molecule: [Cl-].[Cl-].[Co+2] [CoCl2]
- Relative remaining activity [1]: 16.6
- Relative remaining activity [2]: 7.9
- Relative remaining activity [3]: 46.9
- Relative remaining activity [4]: 23.6

B1: Gluconobacter oxydans DSM No. 4025 alcohol/aldehyde dehydrogenase Enzyme A, wild type, SEQ ID NO: 5 (Ketogulonicigenium vulgare WSH-001) (protein)
chain: QVTPVTDELLANPPAGEWISYGQNQENYRHSPLTQITTENVGQLQLVWARGMQPGKVQVTPLIHDGVMYLANPGDVIQAIDAKTGDLIWEHRRQLPNIATLNSFGEPTRGMALYGTNVYFVSWDNHLVALDTATGQVTFDVDRGQGEDMVSNSSGPIVANGVIVAGSTCQYSPFGCFVSGHDSATGEELWRNYFIPRAGEEGDETWGNDYEARWMTGAWGQITYDPVTNLVHYGSTAVGPASETQRGTPGGTLYGTNTRFAVRPDTGEIVWRHQTLPRDNWDQECTFEMMVTNVDVQPSTEMEGLQSINPNAATGERRVLTGVPCKTGTMWQFDAETGEFLWARDTNYQNMIESIDENGIVTVNEDAILKELDVEYDVCPTFLGGRDWPSAALNPDSGIYFIPLNNVCYDMMAVDQEFTSMDVYNTSNVTKLPPGKDMIGRIDAIDISTGRTLWSVERAAANYSPVLSTGGGVLFNGGTDRYFRALSQETGETLWQTRLATVASGQAISYEVDGMQYVAIAGGGVSYGSGLNSALAGERVDSTAIGNAVYVFALPQ
- Km [10]: 36 mM mM
